This passage reports inhibition in vivo and inhibition results from ChEMBL document CHEMBL1138550, “Adamantane derivatives of thiazolyl-N-substituted amide, as possible non-steroidal anti-inflammatory agents” (2009).

One assay relates to Rattus norvegicus. The assay can be described thus: Antiinflammatory activity in AKR rat assessed as inhibition of carrageenan-induced right hind paw oedema at 0.2 mmol/kg, ip coadministered with carrageenan relative to control. In kind it is functional. (In general: In the carrageenan paw model, swelling and tenderness develop within hours.)
Assay [1] has as its target T1, Prostaglandin G/H synthase 1 (Ovis aries) (UniProt P05979).
T1 sequence (whole entry): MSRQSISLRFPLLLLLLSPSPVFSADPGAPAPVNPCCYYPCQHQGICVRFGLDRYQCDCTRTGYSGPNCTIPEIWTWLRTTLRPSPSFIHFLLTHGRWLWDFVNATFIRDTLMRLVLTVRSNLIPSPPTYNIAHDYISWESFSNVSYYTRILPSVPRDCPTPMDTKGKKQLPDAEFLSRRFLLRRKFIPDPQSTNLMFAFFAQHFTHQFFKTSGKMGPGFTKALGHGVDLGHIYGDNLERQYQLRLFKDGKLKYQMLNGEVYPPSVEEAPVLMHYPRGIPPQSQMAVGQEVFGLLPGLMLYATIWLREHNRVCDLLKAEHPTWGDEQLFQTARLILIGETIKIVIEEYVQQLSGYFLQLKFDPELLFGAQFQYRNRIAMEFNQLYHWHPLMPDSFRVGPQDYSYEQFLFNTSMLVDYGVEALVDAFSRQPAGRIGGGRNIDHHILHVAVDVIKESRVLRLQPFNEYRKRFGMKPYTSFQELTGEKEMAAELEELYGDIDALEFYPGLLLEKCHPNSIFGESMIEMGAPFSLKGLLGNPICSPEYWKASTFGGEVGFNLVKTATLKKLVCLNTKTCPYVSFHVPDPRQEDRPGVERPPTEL
The assay is described as follows: Inhibition of ovine COX1 at 200 uM by enzyme immuno assay.

Assay [2] has as its target T2, Seed linoleate 13S-lipoxygenase-1 (Glycine max) (UniProt P08170).
T2 sequence (whole entry): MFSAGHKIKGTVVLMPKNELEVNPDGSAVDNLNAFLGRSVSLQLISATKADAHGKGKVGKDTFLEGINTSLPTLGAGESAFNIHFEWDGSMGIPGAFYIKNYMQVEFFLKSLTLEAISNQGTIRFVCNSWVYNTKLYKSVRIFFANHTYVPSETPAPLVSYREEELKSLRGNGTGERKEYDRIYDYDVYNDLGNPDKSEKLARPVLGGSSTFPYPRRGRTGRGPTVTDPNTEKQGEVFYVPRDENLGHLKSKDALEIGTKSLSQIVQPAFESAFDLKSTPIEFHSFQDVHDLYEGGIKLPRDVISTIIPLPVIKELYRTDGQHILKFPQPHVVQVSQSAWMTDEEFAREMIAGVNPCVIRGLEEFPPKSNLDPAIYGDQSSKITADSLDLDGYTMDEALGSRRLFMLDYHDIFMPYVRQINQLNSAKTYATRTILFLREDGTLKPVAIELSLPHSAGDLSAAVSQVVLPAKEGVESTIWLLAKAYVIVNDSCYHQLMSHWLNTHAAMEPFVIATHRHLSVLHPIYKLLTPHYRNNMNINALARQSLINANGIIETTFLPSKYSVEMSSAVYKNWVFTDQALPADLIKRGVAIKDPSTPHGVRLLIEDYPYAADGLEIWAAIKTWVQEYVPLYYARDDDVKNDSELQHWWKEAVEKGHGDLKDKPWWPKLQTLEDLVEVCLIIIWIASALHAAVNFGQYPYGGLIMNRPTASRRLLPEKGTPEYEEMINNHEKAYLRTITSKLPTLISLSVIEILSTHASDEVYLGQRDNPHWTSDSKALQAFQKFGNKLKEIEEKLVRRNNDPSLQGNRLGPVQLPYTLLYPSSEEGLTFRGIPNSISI
The assay can be described thus: Inhibition of soybean LOX1 at 100 uM.

For assay [3], the target named is T3, Prostaglandin G/H synthase 2 (Homo sapiens) (UniProt P35354).
T3 sequence (whole entry): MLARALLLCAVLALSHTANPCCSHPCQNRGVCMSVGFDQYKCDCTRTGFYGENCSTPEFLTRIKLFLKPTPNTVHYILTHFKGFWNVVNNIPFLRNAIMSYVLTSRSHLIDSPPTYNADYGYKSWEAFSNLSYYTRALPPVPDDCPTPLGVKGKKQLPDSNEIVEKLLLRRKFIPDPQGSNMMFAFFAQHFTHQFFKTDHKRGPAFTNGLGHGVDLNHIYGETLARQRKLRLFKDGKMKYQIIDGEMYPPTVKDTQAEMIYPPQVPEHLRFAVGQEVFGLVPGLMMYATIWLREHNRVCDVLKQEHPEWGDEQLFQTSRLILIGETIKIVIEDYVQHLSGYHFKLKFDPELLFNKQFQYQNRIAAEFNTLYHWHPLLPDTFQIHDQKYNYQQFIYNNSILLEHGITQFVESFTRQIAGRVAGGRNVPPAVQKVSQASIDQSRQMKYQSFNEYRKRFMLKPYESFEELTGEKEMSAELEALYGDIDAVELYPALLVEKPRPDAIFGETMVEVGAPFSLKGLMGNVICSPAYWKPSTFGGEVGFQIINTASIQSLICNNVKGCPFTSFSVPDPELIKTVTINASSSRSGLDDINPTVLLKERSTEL
The assay can be described thus: Inhibition of human recombinant COX2 at 200 uM by enzyme immuno assay.

Assay [4] addresses T3, Prostaglandin G/H synthase 2 (Homo sapiens). The assay is described as follows: Inhibition of human recombinant COX2 at 20 uM by enzyme immuno assay.
Assay [5] concerns the target T1, Prostaglandin G/H synthase 1 (Ovis aries). The assay can be described thus: Inhibition of ovine COX1 at 20 uM by enzyme immuno assay.

The structures appear in SMILES notation.

Take `COc1ccc(-c2csc(NC(=O)CN3CCCCC3)n2)cc1`: the inhibition in vivo at 200 µmol/kg in the assay with Rattus norvegicus was found to be 53.3%.

Consider `CN(C)CCC(=O)Nc1nc(C23CC4CC(CC(C4)C2)C3)cs1`, for which the inhibition worked out at 25% in assay [1], 1% in assay [2] and 8.6% in assay [3]. The inhibition in vivo at 200 µmol/kg with Rattus norvegicus came to 81.5%.

For `O=C(CN1CCN(c2ccccc2)CC1)Nc1nccs1`, the inhibition in vivo at 200 µmol/kg with Rattus norvegicus worked out at 72.1%.

In the case of `CN(C)CC(=O)Nc1nc(C23CC4CC(CC(C4)C2)C3)cs1`, the results for the inhibition in assay [1], in assay [2] and in assay [3] were 25%, 26.4% and 3.6%, respectively. Also, in the assay with Rattus norvegicus, the inhibition in vivo at 200 µmol/kg was found to be 48%.

As to `O=C(CN1CCOCC1)Nc1nc(C23CC4CC(CC(C4)C2)C3)cs1`, the inhibition in assay [1] amounted to 27.9%; in assay [2], 0%; in assay [3], 35.3%. In addition, in the assay on Rattus norvegicus, the inhibition in vivo at 200 µmol/kg turned out to be 57.8%.

On to `COc1ccc(-c2csc(NC(=O)CN(C)C)n2)cc1`, for which the inhibition in vivo at 200 µmol/kg with Rattus norvegicus worked out at 35%.

In the case of `O=C(CCN1CCN(c2ccccc2)CC1)Nc1nc(C23CC4CC(CC(C4)C2)C3)cs1`, the inhibition in vivo at 200 µmol/kg with Rattus norvegicus was determined as 55.9%. Also, the results for the inhibition in assay [2], in assay [4] and in assay [5] were 39%, 17.3% and 28.6%, respectively.

With `O=C(CCN1CCCC1)Nc1nc(-c2ccccc2)cs1`, the inhibition in vivo at 200 µmol/kg in the assay on Rattus norvegicus was found to be 68.4%.

In the case of `Cc1csc(NC(=O)CN(C)C)n1`, the inhibition in vivo at 200 µmol/kg in the assay on Rattus norvegicus was determined as 37.6%.

For `CN1CCN(CC(=O)Nc2nc(C34CC5CC(CC(C5)C3)C4)cs2)CC1`, the inhibition in vivo at 200 µmol/kg with Rattus norvegicus worked out at 30%.

Regarding `O=C(CCN1CCOCC1)Nc1nc(C23CC4CC(CC(C4)C2)C3)cs1`, in the assay with Rattus norvegicus, the inhibition in vivo at 200 µmol/kg is 49.2%. Also, the inhibition in assay [2] came out at 8.4%.

As for `COc1ccc(-c2csc(NC(=O)CN3CCCC3)n2)cc1`, the inhibition in vivo at 200 µmol/kg in the assay on Rattus norvegicus was found to be 55%.

On to `O=C(CN1CCCCC1)Nc1nc(C23CC4CC(CC(C4)C2)C3)cs1`, for which the inhibition in vivo at 200 µmol/kg in the assay with Rattus norvegicus came to 26.6%. The compound also yielded an inhibition in assay [2] of 0%.

Consider `CN(C)CC(=O)Nc1nc(-c2ccccc2)cs1`, for which, in the assay on Rattus norvegicus, the inhibition in vivo at 200 µmol/kg was 52%.

On to `COc1ccc(-c2csc(NC(=O)CCN3CCOCC3)n2)cc1`, for which the inhibition in vivo at 200 µmol/kg in the assay with Rattus norvegicus was found to be 55.4%.

With `COc1ccc(-c2csc(NC(=O)CCN3CCCC3)n2)cc1`, the inhibition in vivo at 200 µmol/kg in the assay on Rattus norvegicus turned out to be 56.2%.

As for `O=C(CN1CCCC1)Nc1nc(C23CC4CC(CC(C4)C2)C3)cs1`, the inhibition in assay [1] is 33.6%; in assay [2] it was 5%; in assay [3] it was 12.2%. Besides, the inhibition in vivo at 200 µmol/kg in the assay on Rattus norvegicus came out at 69.7%.

For `O=C(CCN1CCCC1)Nc1nc(C23CC4CC(CC(C4)C2)C3)cs1`, in the assay on Rattus norvegicus, the inhibition in vivo at 200 µmol/kg turned out to be 36.8%.

As for `CN(C)CC(=O)Nc1nccs1`, the inhibition in vivo at 200 µmol/kg in the assay on Rattus norvegicus was 28.4%.

Take `O=C(CN1CCCC1)Nc1nc(-c2ccccc2)cs1`: the inhibition in vivo at 200 µmol/kg with Rattus norvegicus came to 49.2%.

Regarding `O=C(CCN1CCCC1)Nc1nccs1`, in the assay on Rattus norvegicus, the inhibition in vivo at 200 µmol/kg came out at 64.1%.

Take `O=C(CN1CCN(c2ccccc2)CC1)Nc1nc(C23CC4CC(CC(C4)C2)C3)cs1`: the inhibition in assay [1] turned out to be 43.6%; in assay [2], 33%; in assay [3], 15.8%. In the assay on Rattus norvegicus, the inhibition in vivo at 200 µmol/kg amounted to 47.6%.

One may read the inhibition in vivo as the percentage by which the read-out fell short of the control. By inhibition is commonly meant the change of the read-out against control, counted positive when it falls.
